Reference: PubChem BioAssay AID318 (DTP/NCI, 2004)
Several values for one entry are separate records, joined by “and”; a condition that tells them apart may be missing. Equal values may be shown once. Inconclusive results and toxic doses are left out. Rule for the calls: active = survival T/C of 150% or more; inactive = T/C below 125% in these data. Starred links: 1 amine or outer side, 2 acyl side, 3 side chain; linkers in the order of their positions; H or OH if unused. Positions of bridges follow the written chain, without caps; N, C: chain ends. Non-standard residues stand in square brackets, D forms with d. Residues, ends and D or L forms follow the SMILES beside them. Chains are numbered I, II in the order given. Actinocin(9to1) = Cc1c2oc3c(C)ccc(C(=O)[*:1])c3nc-2c(C(=O)[*:2])c(N)c1=O; NMeV = CN[CH](C(=O)O)C(C)C; Aze = O=C(O)[CH]1CCN1; Sar = CNCC(=O)O

System: BDF1 mice, P815 leukemia ip, survival T/C
Experiment: NCI In Vivo Anticancer Drug Screen. Data for tumor model P815 Mast Cell Leukemia (Ascitic) (intraperitoneal) in B6D2F1 (BDF1) mice
Details: higher = longer survival
Procedure: The antitumor activity of compounds was measured in mice bearing transplantable tumors. Survival or tumor size were measured and the results are expressed as the measurement made in the treated group (T) divided by the measurement made in the vehicle treated control group (C). The tumor model used in this assay is P815 Mast Cell Leukemia (Ascitic) (intraperitoneal) in B6D2F1 (BDF1) mice

[1] = endpoint: survival time, mean or median, dose: 50.0 mg/kg/injection, schedule: Q01DX010 (ip), vehicle: saline
[2] = endpoint: survival time, mean or median, dose: 100.0 mg/kg/injection, schedule: Q01DX010 (ip), vehicle: saline
[3] = endpoint: survival time, mean or median, dose: 10.0 mg/kg/injection, schedule: Q01DX010 (ip), vehicle: saline
[4] = endpoint: survival time, mean or median, dose: 20.0 mg/kg/injection, schedule: Q01DX010 (ip), vehicle: saline
[5] = endpoint: survival time, mean or median, dose: 40.0 mg/kg/injection, schedule: Q01DX010 (ip), vehicle: saline

Measured: T/C

CCOC(N)=O
inactive: endpoint: survival time, mean or median, dose: 125.0 mg/kg/injection, schedule: Q01DX010 (ip), vehicle: saline 100 % of control | endpoint: survival time, mean or median, dose: 250.0 mg/kg/injection, schedule: Q01DX010 (ip), vehicle: saline 100 % of control and 118 % of control | endpoint: survival time, mean or median, dose: 500.0 mg/kg/injection, schedule: Q01DX010 (ip), vehicle: saline 100 % of control and 104 % of control

CC(=O)OCC1OC(n2cnc3c(=S)nc(N)[nH]c32)C(OC(C)=O)C1OC(C)=O (stereo not given)
inactive: endpoint: survival time, mean or median, dose: 1.5 mg/kg/injection, schedule: Q01DX015 (ip), vehicle: other 113 % of control | endpoint: survival time, mean or median, dose: 3.1 mg/kg/injection, schedule: Q01DX015 (ip), vehicle: other 110 % of control | endpoint: survival time, mean or median, dose: 6.2 mg/kg/injection, schedule: Q01DX015 (ip), vehicle: other 108 % of control | endpoint: survival time, mean or median, dose: 12.5 mg/kg/injection, schedule: Q01DX015 (ip), vehicle: other 88 % of control

CC(C)CNS(=O)(=O)c1ncnc2nc[nH]c12
inactive: endpoint: survival time, mean or median, dose: 37.5 mg/kg/injection, schedule: Q01DX015 (ip), vehicle: carboxymethylcellulose (CMC) 97 % of control

O=C(Nc1ccc(C2=NCCN2)cc1)c1ccc(C(=O)Nc2ccc(C3=NCCN3)cc2)c(NC(=O)c2ccc(C(=O)Nc3cc(C(=O)Nc4ccc(C5=NCCN5)cc4)ccc3C(=O)Nc3ccc(C4=NCCN4)cc3)cc2)c1
inactive: endpoint: survival time, mean or median, dose: 25.0 mg/kg/injection, schedule: Q01DX010 (ip), vehicle: saline 95 % of control | [1] 108 % of control | [2] 95 % of control | endpoint: survival time, mean or median, dose: 200.0 mg/kg/injection, schedule: Q01DX010 (ip), vehicle: saline 104 % of control

O=C(Nc1ccc(C2=NCCN2)cc1)c1ccc(NC(=O)c2ccc(C3=NCCN3)cc2)cc1
inactive: endpoint: survival time, mean or median, dose: 18.0 mg/kg/injection, schedule: Q01DX010 (ip), vehicle: saline 112 % of control | endpoint: survival time, mean or median, dose: 27.0 mg/kg/injection, schedule: Q01DX010 (ip), vehicle: saline 116 % of control

Cc1c2oc3c(C)ccc(C(=O)NC4C(=O)NC(C(C)C)C(=O)N5CCC5C(=O)N(C)CC(=O)N(C)C(C(C)C)C(=O)OC4C)c3nc-2c(C(=O)NC2C(=O)NC(C(C)C)C(=O)N3CCC3C(=O)N(C)CC(=O)N(C)C(C(C)C)C(=O)OC2C)c(N)c1=O (stereo not given) (I: TV[Aze][Sar][NMeV] / II: TV[Aze][Sar][NMeV]; ester I:1-I:C, II:1-II:C; linker I:N-II:N via Actinocin(9to1); configuration not given here)
inactive: endpoint: median survival time, dose: 270.0 micrograms/kg/injection, schedule: Q04DX003 (ip), vehicle: saline + alcohol 118 % of control | endpoint: median survival time, dose: 450.0 micrograms/kg/injection, schedule: Q01DX001 (ip), vehicle: saline + alcohol 118 % of control | endpoint: median survival time, dose: 450.0 micrograms/kg/injection, schedule: Q04DX003 (ip), vehicle: saline + alcohol 113 % of control | endpoint: median survival time, dose: 750.0 micrograms/kg/injection, schedule: Q01DX001 (ip), vehicle: saline + alcohol 121 % of control | endpoint: median survival time, dose: 750.0 micrograms/kg/injection, schedule: Q04DX003 (ip), vehicle: saline + alcohol 97 % of control | endpoint: median survival time, dose: 1250.0 micrograms/kg/injection, schedule: Q01DX001 (ip), vehicle: saline + alcohol 105 % of control | endpoint: median survival time, dose: 1250.0 micrograms/kg/injection, schedule: Q04DX003 (ip), vehicle: saline + alcohol 92 % of control

O=c1[nH]cc(F)c(=O)[nH]1
inactive: endpoint: median survival time, dose: 80.0 mg/kg/injection, schedule: Q04DX003 (ip), vehicle: saline 118 % of control | [5] 95 % of control and 111 % of control
active: endpoint: survival time, mean or median, dose: 5.0 mg/kg/injection, schedule: Q01DX010 (ip), vehicle: saline 150 % of control | endpoint: survival time, mean or median, dose: 5.0 mg/kg/injection, schedule: Q01DX015 (ip), vehicle: carboxymethylcellulose (CMC) 162 % of control | [3] 194 % of control and 150 % of control | endpoint: survival time, mean or median, dose: 10.0 mg/kg/injection, schedule: Q01DX015 (ip), vehicle: carboxymethylcellulose (CMC) 174 % of control | endpoint: survival time, mean or median, dose: 15.0 mg/kg/injection, schedule: Q01DX015 (ip), vehicle: carboxymethylcellulose (CMC) 199 % of control and 174 % of control | [4] 195 % of control and 216 % of control | endpoint: survival time, mean or median, dose: 20.0 mg/kg/injection, schedule: Q01DX015 (ip), vehicle: carboxymethylcellulose (CMC) 189 % of control

CN(C)c1nc(N(C)C)nc(N(C)C)n1
inactive: endpoint: survival time, mean or median, dose: 18.8 mg/kg/injection, schedule: Q01DX010 (ip), vehicle: saline 94 % of control and 102 % of control | endpoint: survival time, mean or median, dose: 37.5 mg/kg/injection, schedule: Q01DX010 (ip), vehicle: saline 94 % of control | endpoint: survival time, mean or median, dose: 75.0 mg/kg/injection, schedule: Q01DX010 (ip), vehicle: saline 97 % of control and 102 % of control | endpoint: survival time, mean or median, dose: 150.0 mg/kg/injection, schedule: Q01DX010 (ip), vehicle: saline 102 % of control and 107 % of control

CC1CCOS(=O)O1 (stereo not given)
inactive: [3] 100 % of control | [4] 100 % of control | [5] 100 % of control | endpoint: survival time, mean or median, dose: 80.0 mg/kg/injection, schedule: Q01DX010 (ip), vehicle: saline 88 % of control

O=C1C(NC(=O)C2CCCCC2)=C(N2CC2)C(=O)C(NC(=O)C2CCCCC2)=C1N1CC1
inactive: [1] 88 % of control | [2] 94 % of control
